Results taken from patent US20220264878A1, “HERBICIDAL COMPOSITION CONTAINING R-TYPE PYRIDYLOXY CARBOXYLIC ACID DERIVATIVE AND USE THEREOF” (Qingdao Kingagroot Chemical Compound Co., Ltd., priority 2019, published 2022).

How the values were obtained:
Format in all cases: in vivo
[1] = system: Conyza Canadensis; assay: Post-emergence foliage spray on Conyza Canadensis with a height of 10 cm, fresh weight inhibition (Tables 207-216; 24 days); conditions: 24 days after treatment
Method: (§1) The above weeds were cultivated by a pot culture method. […] Full and uniform weed seeds were selected, soaked in warm water at 25° C. for 6 hours, and germinated in a 28° C. biochemical incubator (darkness). The weed seeds that had just germinatedwere evenly placed on the surface of the soil and then covered with 0.5-1 cm soil according to the sizes of seeds.
(§2) The technical materials were all dissolved in acetone, and diluted with an aqueous solution containing 0.1% emulsifier Tween-80. The dilution is performed as required.
(§3) A ratio of the active ingredient A to the active ingredient B and amounts thereof in each group depends on the characteristics and toxicity of the two agents, as well as the main application purpose of a corresponding formulation. Based on the pre-tests in this study, the dosage of the active ingredient A and B applied alone and in combination were shown in the tables. Water containing the solvent and emulsifier same with the above groups but free of the agents was used as a blank control.
In the stage of weeds with 6˜8 leaves, the weeds were thinned out to maintain 3 weeds per pot and 30 weeds for each treatment, then continued to be cultured to Conyza Canadensis with a height of 10 cm, and treated.
(§4) The well-cultured weeds were evenly placed on a platform with an area of 0.5 m^2, and a solution of agents was sprayed on the stems and leaves thereof by the 3WP-2000-type walking spray tower at a dosage of 450 kg/ha and at a spray pressure of 0.3 MPa. After all the solution was sprayed, the valve was closed. After 30 seconds, the door of the spray tower was opened, and the nutritional bowl was taken out. Then the valve was opened, and the spray tube was cleaned by spraying 50 ml of water.
(§5) A pot-culture method was employed. For the cultivation of weeds, please refer to the Section 1.1), and “Pesticide guidelines for laboratory bioactivity tests—herbicides”. As to a method for applying agents, please refer to the section 2.3.2), that is, a foliage treatment was employed. After the treatment, the weeds were routinely cultured in a greenhouse.
(§6) A method for investigating absolute number was employed, wherein whole seedlings of survival weeds were cut off with a blade along the soil surface, and the fresh weight of the weeds was weighed with an analytical balance. For dead weeds, the fresh weight thereof was zero.
Wherein, in the formula, X represented the fresh weight inhibition rate of the active ingredient A in a dosage of P, and Y represented the fresh weight inhibition rate of the active ingredient B in a dosage of Q.

[2] = system: Chenopodium album; assay: Post-emergence foliage spray, pot culture, fresh weight inhibition (Tables 1-48, 51-98, 101-148; 24 days)
Outline: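 Pot-grown weeds were thinned to 15 per pot (45 per treatment) and sprayed on foliage at the 5–6-leaf stage for grasses or the 6–7-leaf stage for broadleaves. Agents were dissolved in acetone with 0.1% Tween-80 and applied at 450 kg/ha spray volume and 0.3 MPa. Plants were then kept in a greenhouse. Above-ground fresh weight of survivors, with dead plants counted as zero, gave inhibition versus a solvent/emulsifier blank.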

[3] = system: Acalypha australis; assay: as above
Description: (§7) Table 1-48, 51-98, 101-148: Echinochloa crusgalli var. zelayensis, Eclipta prostrate, Galium aparine L., Alopecurus aequalis, Alopecurus japonicus, Lindernia procumbens, Veronica persica^1, Malachium aquaticum, Beckmannia syzigachne, Stellaria media were collected in Huai'an of Jiangsu Province; Commelina communis, Sonchus arvensis, Setaria glauca, Chloris virgata, Setaria faberi, Sonchus oleraceus L., Echinochloa oryzoides, Cirsium setosum, Xanthium strumarium were collected in Qiqiha'er of Heilongjiang Province; Sinapis arvensis, Veronica persica^2 were collected in Zhumadian of Henan Province; Ludwigia prostrate, Ammannia arenaria were collected in Zhuji of Zhejiang Province; Amaranthus retrojlexus, Descurainia sophia, Digitaria sanguinalis, Setaria viridis, Conyza Canadensis, Capsella bursa-pastoris, Eleusine indica, Ipomoea purpurea, Abutilon theophrasti, Chenopodium album, Acalypha australis, Solanum nigrum were collected in Qingdao of Shandong Province; Echinochloa caudate were collected in Pingluo of Ningxia Province.
as §1
(§8) The culture was carried out in a controllable sunlight greenhouse at 20 to 30° C., in natural light, and relative humidity of 57% to 72%.
as §2, §3
(§9) Table 1-48, 51-98, 101-148, 151-206: […] per treatment, that is, a total of 60 weeds were treated in one treatment.
(§10) Table 1-48, 51-98, 101-148: The agents were used for only once in the experiment. In the stage of weeds with 3˜4 leaves, the weeds were thinned out to maintain 15 weeds per pot and 45 weeds for each treatment, then continued to be cultured to 5˜6 leaves stage of grassy weeds, 6˜7 leaves stage of broadleaf weeds, and treated.
as §4, §5, §6
(§11) Table 1-48, 51-98, 101-148, 207-216: The investigation was performed after 24 days of the treatment for only once.

[4] = system: Beckmannia syzigachne; assay: as above
Description: as §7, §1, §8, §2, §3, §9, §10, §4, §5, §6, §11

[5] = system: Alopecurus japonicus; assay: as above
Description: as §7, §1, §8, §2, §3, §9, §10, §4, §5, §6, §11

For `Cc1cc(Cl)ccc1OCC(=O)O` [MCPA], the “Control effect (%) of B applied alone in corresponding dose” value (shortened to “Control effect (%) of B applied alone”) ([1]; B alone 75 g a.i./ha) was 18.8%.

With `Nc1cc(Cl)nc(C(=O)O)c1Cl` [aminopyralid] the “Control effect (%) of B applied alone” value ([1]; B alone 15 g a.i./ha) was 19.0% and the “Control effect (%) of B applied alone” value ([1]; B alone 30 g a.i./ha) was 40.7%.

With `N#Cc1cc(Br)c(O)c(Br)c1` [bromoxynil] the “Control effect (%) of B applied alone” value ([2]; bromoxynil 18.75 g a.i./ha) was 3.1%, the “Control effect (%) of B applied alone” value ([2]; bromoxynil 37.5 g a.i./ha) was 10.8% and the “Control effect (%) of B applied alone” value ([2]; bromoxynil 75 g a.i./ha) was 57.7%. The “Control effect (%) of B applied alone” value ([2]; bromoxynil 150 g a.i./ha) was 83.6%, the “Control effect (%) of B applied alone” value ([3]; B 18.75 g a.i./ha) was 4.6% and the “Control effect (%) of B applied alone” value ([3]; B 37.5 g a.i./ha) was 10.6%. For the same compound, the “Control effect (%) of B applied alone” value ([3]; B 75 g a.i./ha) was 58.9% and the “Control effect (%) of B applied alone” value ([3]; B 150 g a.i./ha) was 84.0%.

For `Cc1ccc(NC(=O)N(C)C)cc1Cl` [chlorotoluron], the “Control effect (%) of B applied alone” value ([4]; B 75 g a.i./ha) was 5.5%, the “Control effect (%) of B applied alone” value ([4]; B 150 g a.i./ha) was 16.8% and the “Control effect (%) of B applied alone” value ([4]; B 300 g a.i./ha) was 41.1%. For the same compound, the “Control effect (%) of B applied alone” value ([4]; B 600 g a.i./ha) was 72.1%, the “Control effect (%) of B applied alone” value ([5]; chlorotoluron 75 g a.i./ha) was 2.9% and the “Control effect (%) of B applied alone” value ([5]; chlorotoluron 150 g a.i./ha) was 13.1%. For the same compound, the “Control effect (%) of B applied alone” value ([5]; chlorotoluron 300 g a.i./ha) was 39.8% and the “Control effect (%) of B applied alone” value ([5]; chlorotoluron 600 g a.i./ha) was 71.9%.

In the case of `C#CCOC(=O)[C@@H](C)Oc1ccc(Oc2ncc(Cl)cc2F)cc1` [clodinafop-propargyl], the “Control effect (%) of B applied alone” value ([4]; B 3.75 g a.i./ha) is reported as 10.3%, the “Control effect (%) of B applied alone” value ([4]; B 7.5 g a.i./ha) is reported as 20.1% and the “Control effect (%) of B applied alone” value ([4]; B 15 g a.i./ha) is reported as 59.6%. The “Control effect (%) of B applied alone” value ([4]; B 30 g a.i./ha) was 81.2%, the “Control effect (%) of B applied alone” value ([5]; clodinafop-propargyl 3.75 g a.i./ha) was 3.0% and the “Control effect (%) of B applied alone” value ([5]; clodinafop-propargyl 7.5 g a.i./ha) was 10.6%. The “Control effect (%) of B applied alone” value ([5]; clodinafop-propargyl 15 g a.i./ha) was 57.8% and the “Control effect (%) of B applied alone” value ([5]; clodinafop-propargyl 30 g a.i./ha) was 79.9%.

With `O=C(O)c1nc(Cl)ccc1Cl` [clopyralid] the “Control effect (%) of B applied alone” value ([1]; B alone 15 g a.i./ha) was 6.1%, the “Control effect (%) of B applied alone” value ([1]; B alone 30 g a.i./ha) was 29.8% and the “Control effect (%) of B applied alone” value ([1]; B alone 60 g a.i./ha) was 53.5%. The “Control effect (%) of B applied alone” value ([1]; B alone 120 g a.i./ha) was 82.8%.
